Results as given in ChEMBL document CHEMBL1201862, “PubChem BioAssay data set” (2004).
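Five concentrations, 48 hours, 96-well plates. GI50 marks 50% less growth.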 Active and inactive are the calls of the source. Rule as the data show it: active = GI50 up to about 1.1 µM and inactive = higher.

Key:
Assay in all cases: inhibition of tumour cell growth, NCI panel, 48 h
786-0 = system: 786-0
A498 = system: A498
A549 = system: A549
ACHN = system: ACHN
BT-549 = system: BT-549
CAKI-1 = system: CAKI-1
CCRF-CEM = system: CCRF-CEM
COLO 205 = system: COLO 205
DU-145 = system: DU-145
EKVX = system: EKVX
HCC 2998 = system: HCC 2998
HCT-116 = system: HCT-116
HCT-15 = system: HCT-15
HL-60 = system: HL-60
HOP-62 = system: HOP-62
HOP-92 = system: HOP-92
HT-29 = system: HT-29
Hs-578T = system: Hs-578T
K562 = system: K562
KM12 = system: KM12
LOX IMVI = system: LOX IMVI
M14 = system: M14
MCF7 = system: MCF7
MDA-MB-231 = system: MDA-MB-231
MDA-MB-435 = system: MDA-MB-435
MDA-N = system: MDA-N
MOLT-4 = system: MOLT-4
Malme-3M = system: Malme-3M
NCI-H226 = system: NCI-H226
NCI-H23 = system: NCI-H23
NCI-H460 = system: NCI-H460
NCI-H522 = system: NCI-H522
NCI/ADR-RES = system: NCI/ADR-RES
OVCAR-3 = system: OVCAR-3
OVCAR-4 = system: OVCAR-4
OVCAR-5 = system: OVCAR-5
OVCAR-8 = system: OVCAR-8
PC-3 = system: PC-3
RXF 393 = system: RXF 393
SF-268 = system: SF-268
SF-295 = system: SF-295
SF-539 = system: SF-539
SK-MEL-28 = system: SK-MEL-28
SK-MEL-2 = system: SK-MEL-2
SK-MEL-5 = system: SK-MEL-5
SK-OV-3 = system: SK-OV-3
SN12C = system: SN12C
SNB-19 = system: SNB-19
SNB-75 = system: SNB-75
SR = system: SR
SW-620 = system: SW-620
T47D = system: T47D
TK-10 = system: TK-10
U-251 = system: U-251
UACC-257 = system: UACC-257
UACC-62 = system: UACC-62
UO-31 = system: UO-31
IGROV-1 = system: IGROV-1
RPMI-8226 = system: RPMI-8226

Measured: GI50

COc1cccc(N2C(=O)CSC2c2cccc(Oc3ccccc3)c2)c1 (configuration not stated)
inactive: 786-0 6.47 µM | A498 3.94 µM | A549 9.53 µM | ACHN 6.17 µM | BT-549 12.3 µM | CAKI-1 2.03 µM | CCRF-CEM 9.33 µM | COLO 205 3.37 µM | DU-145 20.4 µM | EKVX 13.8 µM | HCC 2998 3.14 µM | HCT-116 3.61 µM | HL-60 4.39 µM | HOP-62 9.38 µM | HOP-92 6.21 µM | HT-29 4.28 µM | Hs-578T 5.78 µM | K562 3.42 µM | KM12 4.35 µM | LOX IMVI 6.87 µM | M14 4.79 µM | MCF7 2.48 µM | MDA-MB-231 7.78 µM | MDA-MB-435 2.81 µM | MDA-N 1.89 µM | MOLT-4 3.88 µM | Malme-3M 9.02 µM | NCI-H226 8.32 µM | NCI-H23 11.5 µM | NCI-H460 3.33 µM | NCI-H522 3.34 µM | NCI/ADR-RES 3.61 µM | OVCAR-3 4.79 µM | OVCAR-4 10.3 µM | OVCAR-5 18.5 µM | OVCAR-8 8.69 µM | PC-3 5.3 µM | RXF 393 7.03 µM | SF-268 6.79 µM | SF-295 6.32 µM | SF-539 4.27 µM | SK-MEL-28 19 µM | SK-MEL-2 4.28 µM | SK-MEL-5 4.36 µM | SK-OV-3 16.1 µM | SN12C 7.98 µM | SNB-19 8.41 µM | SNB-75 3.9 µM | SR 3.79 µM | SW-620 4.8 µM | T47D 9.04 µM | TK-10 4.45 µM | U-251 5.22 µM | UACC-257 3.08 µM | UACC-62 3.21 µM | UO-31 9.66 µM
4.21 µM: HCT-15

CCOC(=O)c1cc(Br)c(-c2onc(C)c2Br)n1C
inactive: 786-0 25.9 µM | A498 45.2 µM | A549 23.3 µM | ACHN 41.6 µM | BT-549 41.4 µM | CAKI-1 12.8 µM | CCRF-CEM 30.7 µM | COLO 205 28.4 µM | DU-145 93.5 µM | EKVX 6.08 µM | HCC 2998 85.9 µM | HCT-116 18.9 µM | HL-60 11.8 µM | HOP-62 35.6 µM | Hs-578T 10.8 µM | IGROV-1 59.8 µM | K562 30.5 µM | KM12 21.8 µM | LOX IMVI 34 µM | M14 40.6 µM | MCF7 23.6 µM | MDA-MB-231 24.2 µM | MDA-MB-435 34.8 µM | MDA-N 43 µM | MOLT-4 15 µM | Malme-3M 52.8 µM | NCI-H226 55.2 µM | NCI-H23 47.8 µM | NCI-H460 40 µM | NCI-H522 19.1 µM | NCI/ADR-RES 37.2 µM | OVCAR-3 31.6 µM | OVCAR-4 38.5 µM | OVCAR-5 19.4 µM | OVCAR-8 63.4 µM | PC-3 35.3 µM | RPMI-8226 55 µM | RXF 393 10.2 µM | SF-268 75 µM | SF-295 23.9 µM | SF-539 > 100 µM | SK-MEL-28 > 100 µM | SK-MEL-2 36.6 µM | SK-MEL-5 16.9 µM | SK-OV-3 21.9 µM | SN12C 23.1 µM | SNB-19 46.2 µM | SNB-75 18.1 µM | SR 20.5 µM | SW-620 49.7 µM | T47D 15.6 µM | TK-10 66.8 µM | U-251 43.1 µM | UACC-257 44.7 µM | UACC-62 27.9 µM | UO-31 45.9 µM
37.6 µM: HCT-15

CCC(C)C(=O)OC1CC2(C)C(c3ccoc3)OC(=O)CC23OC2(C)OC34C(OC(=O)C(C)C)C3(O)C(OC(=O)C5(C)OC5C)C5(C)CC3(O)C(C)(C5CC(=O)OC)C14O2 (configuration not stated)
40.6 µM: HCT-15
inactive: 786-0 > 100 µM | A498 75.5 µM | A549 34.3 µM | ACHN 37 µM | BT-549 60.7 µM | CAKI-1 57.3 µM | CCRF-CEM 28.6 µM | COLO 205 20 µM | DU-145 68.2 µM | EKVX 24.3 µM | HCC 2998 66.8 µM | HCT-116 54.7 µM | HL-60 15.6 µM | HOP-92 36.8 µM | HT-29 29.7 µM | Hs-578T 14.5 µM | IGROV-1 64.4 µM | K562 27.8 µM | KM12 43 µM | LOX IMVI 52.7 µM | M14 42.9 µM | MCF7 17.6 µM | MDA-MB-231 56.2 µM | MDA-MB-435 83 µM | MDA-N 47.1 µM | MOLT-4 20.7 µM | Malme-3M > 100 µM | NCI-H226 51.6 µM | NCI-H23 54.3 µM | NCI-H460 36.3 µM | NCI-H522 37 µM | NCI/ADR-RES 21.7 µM | OVCAR-4 38.4 µM | OVCAR-5 91.2 µM | OVCAR-8 52.6 µM | PC-3 31.8 µM | SF-268 47.2 µM | SF-295 41.1 µM | SF-539 15 µM | SK-MEL-28 > 100 µM | SK-MEL-2 68.7 µM | SK-MEL-5 22.8 µM | SK-OV-3 > 100 µM | SN12C > 100 µM | SNB-19 32.6 µM | SNB-75 15.5 µM | SR 24.1 µM | SW-620 50 µM | T47D 23.1 µM | TK-10 65 µM | U-251 86.1 µM | UACC-257 79.4 µM | UACC-62 86.9 µM | UO-31 35.9 µM

Cc1c2c(n(CCc3ccc(Cl)cc3)c1C)NC(c1ccccc1)C(C#N)S2(=O)=O (configuration not stated)
inactive: 786-0 32.3 µM | A498 > 85.7 µM | A549 22.5 µM | ACHN > 100 µM | BT-549 37 µM | CAKI-1 > 100 µM | CCRF-CEM 2.08 µM | COLO 205 8.36 µM | DU-145 > 60 µM | EKVX 31.3 µM | HCC 2998 > 100 µM | HCT-116 15.2 µM | HL-60 7 µM | HOP-62 > 79.4 µM | HOP-92 17.5 µM | HT-29 11.9 µM | Hs-578T 26.1 µM | IGROV-1 17.2 µM | K562 5.14 µM | KM12 18.3 µM | LOX IMVI 24.5 µM | M14 27.2 µM | MCF7 5.14 µM | MDA-MB-231 11.5 µM | MDA-MB-435 11.1 µM | MDA-N 19.9 µM | MOLT-4 3.24 µM | Malme-3M 20.5 µM | NCI-H226 > 59.7 µM | NCI-H23 > 47.9 µM | NCI-H460 44.1 µM | NCI-H522 11.7 µM | NCI/ADR-RES > 63 µM | OVCAR-3 > 91.2 µM | OVCAR-4 > 70.1 µM | OVCAR-5 > 100 µM | OVCAR-8 47 µM | PC-3 19.6 µM | RPMI-8226 3.51 µM | SF-268 40.2 µM | SF-295 > 53.5 µM | SF-539 34.8 µM | SK-MEL-28 > 76.6 µM | SK-MEL-2 22.4 µM | SK-MEL-5 3.95 µM | SK-OV-3 > 90.6 µM | SN12C > 72.1 µM | SNB-19 > 100 µM | SNB-75 44.7 µM | SR 3.22 µM | SW-620 > 45.9 µM | T47D 17.9 µM | TK-10 > 100 µM | U-251 38.2 µM | UACC-257 58.6 µM | UACC-62 36.6 µM | UO-31 13.9 µM
> 48 µM: HCT-15
